Reference: patent US10125134B2 (Mirati Therapeutics, Inc., priority 2016, dated 2018)
Where two headings read alike, the source gives them in different places.

Assays:
[1] = tested on: NCI-H358 cells (express KRas G12C), Phospho-ERK; assay: Cellular inhibition of KRas G12C: Phospho-ERK in NCI-H358 cells; type: cell-based; conditions: Homo sapiens, pERK(Thr202/Tyr204) normalized with GAPDH, NCI-H358 cells, 3 hours, read-out: IC50
How it was run: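 IC50 derived by 4-parameter fit of GAPDH-normalized pERK(Thr202/Tyr204) signal, as percent of DMSO control. Signal came from in-cell immunodetection with infrared secondaries after 3 h compound exposure of KRas G12C NCI-H358 cells at 0.5% DMSO.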

KRas G12C = KRas G12C (Homo sapiens, UniProt P01116, C118S/C51S/C80L/G12C); assay: KRas G12C Modification Assay (LCMS detection of covalent adduct); type: binding; conditions: normalized percent of control; tested at 5 μM concentration for 3 hours
How it was run: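 Covalent modification was read by reverse-phase LC/MS of intact protein after compound exposure, each reaction stopped at its time point with 25 mM acetic acid. Unmodified-protein signal, taken as percent of total, was normalised to untreated protein and reported as POC.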

Row | POC (KRas G12C) | Structure (SMILES) | IC50 ([1]; NCI-H358, 3 h) [µM] | IC50 [1] [µM]
1 | C (“C”>50% POC) | C=CC(=O)N1CCN(c2nc(OC[C@@H]3CCCN3C)nc3c2CCN(c2cccc4cccc(C)c24)C3)C[C@H]1CC#N [Example 458, 2-[(2R)-4-[7-(8-methyl-1-naphthyl)-2-[[(2S)-1-methylpyrrolidin-2-yl]methoxy]-6,8-dihydro-5H-pyrido[3,4-d]pyrimidin-4-yl]-1-prop-2-enoyl-piperazin-2-yl]acetonitrile] | 0.0001 to 1 | 
2 | C (“C”>50% POC) | C=CC(=O)N1CCN(c2nc(OC[C@@H]3CCCN3C)nc3c2CCN(c2nccc4ccccc24)C3)CC1CC#N (stereo partly drawn) [Example 258, 2-[4-[7-(1-isoquinolyl)-2-[[(2S)-1-methylpyrrolidin-2-yl]methoxy]-6,8-dihydro-5H-pyrido[3,4-d]pyrimidin-4-yl]-1-prop-2-enoyl-piperazin-2-yl]acetonitrile] | > 1 | 
3 | C (“C”>50% POC) | C=CC(=O)N1CCN(c2nc(OC[C@@H]3CCCN3C)nc3c2CCN(c2cccc4ncccc24)C3)CC1CC#N (stereo partly drawn) [Example 264, 2-[4-[2-[[(2S)-1-methylpyrrolidin-2-yl]methoxy]-7-(5-quinolyl)-6,8-dihydro-5H-pyrido[3,4-d]pyrimidin-4-yl]-1-prop-2-enoyl-piperazin-2-yl]acetonitrile] | > 1 | 
4 | C (“C”>50% POC) | C=CC(=O)N1[C@H](C)CN(c2nc(OCCCN3CCOCC3)nc3c2CCN(c2cc(O)cc4ccccc24)C3)C[C@@H]1C [Example 191, 1-((2S,6R)-4-(7-(3-hydroxynaphthalen-1-yl)-2-(3-morpholinopropoxy)-5,6,7,8-tetrahydropyrido[3,4-d]pyrimidin-4-yl)-2,6-dimethylpiperazin-1-yl)prop-2-en-1-one] |  | > 1
5 | C (“C”>50% POC) | C=CC(=O)N1CCN(c2nc(OC[C@@H]3CCCN3C)nc3c2CCN(c2ccncc2C)C3)C[C@@H]1CC#N [Example 345, 2-[(2S)-4-[7-(3-methyl-4-pyridyl)-2-[[(2S)-1-methylpyrrolidin-2-yl]methoxy]-6,8-dihydro-5H-pyrido[3,4-d]pyrimidin-4-yl]-1-prop-2-enoyl-piperazin-2-yl]acetonitrile] | > 1 | 
6 | C (“C”>50% POC) | C=CC(=O)N1CCN(c2nc(O[C@H](C)CN3CCCC3)nc3c2CCN(c2cc(O)cc4ccccc24)C3)CC1 [Example 120, (R)-1-(4-(7-(3-hydroxynaphthalen-1-yl)-2-((1-(pyrrolidin-1-yl)propan-2-yl)oxy)-5,6,7,8-tetrahydropyrido[3,4-d]pyrimidin-4-yl)piperazin-1-yl)prop-2-en-1-one] | 0.0001 to 1 | 
7 | C (“C”>50% POC) | Cc1cccc2cccc(N3CCc4c(nc(OCCC(=O)N(C)C)nc4N4CCN(C(=O)/C=C/CN(C)C)[C@@H](CC#N)C4)C3)c12 [Example 460, (S,E)-3-((4-(3-(cyanomethyl)-4-(4-(dimethylamino)but-2-enoyl)piperazin-1-yl)-7-(8-methylnaphthalen-1-yl)-5,6,7,8-tetrahydropyrido[3,4-d]pyrimidin-2-yl)oxy)-N,N-dimethylpropanamide] |  | 0.0001 to 1
8 | C (“C”>50% POC) | C=CC(=O)N1CCN(c2nc(O[C@H](C)CN(C)C)nc3c2CCN(c2cc(O)cc4ccccc24)C3)[C@@H](C)C1 [Example 115, 1-((S)-4-(2-(((R)-1-(dimethylamino)propan-2-yl)oxy)-7-(3-hydroxynaphthalen-1-yl)-5,6,7,8-tetrahydropyrido[3,4-d]pyrimidin-4-yl)-3-methylpiperazin-1-yl)prop-2-en-1-one] |  | 0.0001 to 1
9 | C (“C”>50% POC) | C=CC(=O)N1CCN(c2nc(OC[C@H]3CCCCN3C)nc3c2CCN(c2cc(O)cc4ccccc24)C3)CC1 [Example 195, (R)-1-(4-(7-(3-hydroxynaphthalen-1-yl)-2-((1-methylpiperidin-2-yl)methoxy)-5,6,7,8-tetrahydropyrido[3,4-d]pyrimidin-4-yl)piperazin-1-yl)prop-2-en-1-one] | > 1 | 

The remaining lines, values behind:

Row | Structure (SMILES) | POC (KRas G12C) | IC50 ([1]; NCI-H358, 3 h) [µM] | IC50 [1] [µM]
10 | CC#CC(=O)N1CCN(c2nc(OC[C@@H]3CCCN3C)nc3c2CCN(c2cccc4ccccc24)C3)CC1CC#N (stereo partly drawn) [Example 376, 2-(1-(but-2-ynoyl)-4-(2-(((S)-1-methylpyrrolidin-2-yl)methoxy)-7-(naphthalen-1-yl)-5,6,7,8-tetrahydropyrido[3,4-d]pyrimidin-4-yl)piperazin-2-yl)acetonitrile 2,2,2-trifluoroacetate] | C (“C”>50% POC) | 0.0001 to 1 | 
11 | C=CC(=O)N1CCN(c2nc(O[C@H](C)CN3CCOCC3)nc3c2CCN(c2cc(O)cc4ccccc24)C3)CC1 [Example 56, (R)-1-(4-(7-(3-hydroxynaphthalen-1-yl)-2-((1-morpholinopropan-2-yl)oxy)-5,6,7,8-tetrahydropyrido[3,4-d]pyrimidin-4-yl)piperazin-1-yl)prop-2-en-1-one] | C (“C”>50% POC) | 0.0001 to 1 | 
12 | C=CC(=O)N1CCN(c2nc(OCCN3CCCC[C@H]3C)nc3c2CCN(c2cc(O)cc4ccccc24)C3)CC1 [Example 97, (R)-1-(4-(7-(3-hydroxynaphthalen-1-yl)-2-(2-(2-methylpiperidin-1-yl)ethoxy)-5,6,7,8-tetrahydropyrido[3,4-d]pyrimidin-4-yl)piperazin-1-yl)prop-2-en-1-one] | C (“C”>50% POC) | 0.0001 to 1 | 
13 | C=CC(=O)N1CCN(c2nc(OC[C@@H]3CCCN3C)nc3c2CCN(c2cnccc2C(F)(F)F)C3)CC1CC#N (stereo partly drawn) [Example 212, 2-(1-acryloyl-4-(2-(((S)-1-methylpyrrolidin-2-yl)methoxy)-7-(4-(trifluoromethyl)pyridin-3-yl)-5,6,7,8-tetrahydropyrido[3,4-d]pyrimidin-4-yl)piperazin-2-yl)acetonitrile] | C (“C”>50% POC) | 0.0001 to 1 | 
14 | C=CC(=O)N1CCN(c2nc(OC[C@@H]3CCCN3C(C)C)nc3c2CCN(c2cccc4ccccc24)C3)CC1CC#N (stereo partly drawn) [Example 252, 2-[4-[2-[[(2S)-1-isopropylpyrrolidin-2-yl]methoxy]-7-(1-naphthyl)-6,8-dihydro-5H-pyrido[3,4-d]pyrimidin-4-yl]-1-prop-2-enoyl-piperazin-2-yl]acetonitrile] | C (“C”>50% POC) |  | 0.0001 to 1
15 | C=CC(=O)N1CCN(c2nc(OC[C@@H]3CCCN3C)nc3c2CCN(c2cccc4cccc(Br)c24)C3)C[C@@H]1CC#N [Example 461, 2-((S)-1-acryloyl-4-(7-(8-bromonaphthalen-1-yl)-2-(((S)-1-methylpyrrolidin-2-yl)methoxy)-5,6,7,8-tetrahydropyrido[3,4-d]pyrimidin-4-yl)piperazin-2-yl)acetonitrile] | C (“C”>50% POC) | 0.0001 to 1 | 
16 | C=CC(=O)N1CCN(c2nc(OC[C@@H]3CCCN3C)nc3c2CCN(c2cccc4ccc(C)cc24)C3)CC1CC#N (stereo partly drawn) [Example 245, 2-[4-[7-(7-methyl-1-naphthyl)-2-[[(2S)-1-methylpyrrolidin-2-yl]methoxy]-6,8-dihydro-5H-pyrido[3,4-d]pyrimidin-4-yl]-1-prop-2-enoyl-piperazin-2-yl]acetonitrile] | C (“C”>50% POC) |  | 0.0001 to 1
17 | C=CC(=O)N1CCN(c2nc(OC[C@H]3CCCN3C)nc3c2CCN(c2cccc4ccccc24)C3)C[C@@H]1CC#N [Example 267, 2-((S)-1-acryloyl-4-(2-(((R)-1-methylpyrrolidin-2-yl)methoxy)-7-(naphthalen-1-yl)-5,6,7,8-tetrahydropyrido[3,4-d]pyrimidin-4-yl)piperazin-2-yl)acetonitrile] | C (“C”>50% POC) |  | 0.0001 to 1
18 | CN(C)C/C=C/C(=O)N1CCN(c2nc(OC[C@@H]3C[C@@H](O)CN3C)nc3c2CCN(c2cccc(F)c2C(F)(F)F)C3)C[C@@H]1CC#N [Example 342, 2-[(2S)-1-[(E)-4-(dimethylamino)but-2-enoyl]-4-[7-[3-fluoro-2-(trifluoromethyl)phenyl]-2-[[(2S,4R)-4-hydroxy-1-methyl-pyrrolidin-2-yl]methoxy]-6,8-dihydro-5H-pyrido[3,4-d]pyrimidin-4-yl]piperazin-2-yl]acetonitrile] | C (“C”>50% POC) |  | 0.0001 to 1
19 | C=CC(=O)N1CCN(c2nc(OC[C@@H]3CCCN3C)nc3c2CCN(c2ncccc2C(F)(F)F)C3)CC1CC#N (stereo partly drawn) [Example 373, 2-(1-acryloyl-4-(2-(((S)-1-methylpyrrolidin-2-yl)methoxy)-7-(3-(trifluoromethyl)pyridin-2-yl)-5,6,7,8-tetrahydropyrido[3,4-d]pyrimidin-4-yl)piperazin-2-yl)acetonitrile] | C (“C”>50% POC) | > 1 | 
20 | C=CC(=O)N1CCN(c2nc(OC[C@@H]3C[C@@H](O)CN3C)nc3c2CCN(c2cccc4ccccc24)C3)C[C@@H]1CC#N [Example 315, 2-[(2S)-4-[2-[[(2S,4R)-4-hydroxy-1-methyl-pyrrolidin-2-yl]methoxy]-7-(1-naphthyl)-6,8-dihydro-5H-pyrido[3,4-d]pyrimidin-4-yl]-1-prop-2-enoyl-piperazin-2-yl]acetonitrile] | C (“C”>50% POC) | 0.0001 to 1 | 
21 | C=CC(=O)N1CCN(c2nc(O[C@H](C)CN(C)C)nc3c2CCN(c2cccc4ccccc24)C3)CC1 [Example 68, (R)-1-(4-(2-((1-(dimethylamino)propan-2-yl)oxy)-7-(naphthalen-1-yl)-5,6,7,8-tetrahydropyrido[3,4-d]pyrimidin-4-yl)piperazin-1-yl)prop-2-en-1-one] | A (“A”≤25% POC) | > 1 | 
